{"source": "BindingDB's records for doi:10.1074/jbc.M807947200", "about": "(National Yang-Ming University, 2009)", "key": {"Genome polyprotein": {"molecular_target": "Genome polyprotein (Coxsackievirus B3 (strain Nancy), UniProt P03313)", "sequence (P03313 1541-1723 limits assumed)": "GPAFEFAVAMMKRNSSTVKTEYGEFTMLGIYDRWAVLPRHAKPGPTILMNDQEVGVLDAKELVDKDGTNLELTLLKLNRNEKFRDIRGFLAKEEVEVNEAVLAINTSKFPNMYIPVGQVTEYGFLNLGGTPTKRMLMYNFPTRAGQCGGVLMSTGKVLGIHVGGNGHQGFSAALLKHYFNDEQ", "assay": "Enzyme Inhibition Assay", "details": "pH 6.5; 25 °C", "protocol": "(§1) Peptidomimetic inhibitors against CVB3 3Cpro and SARS-CoV 3CLpro. The inhibition constant of SARS 3CLpro was analyzed with reverse-phase HPLC using a C-18 column."}, "[1]": {"molecular_target": "Replicase polyprotein 1ab (Severe acute respiratory syndrome coronavirus, UniProt P0C6X7)", "assay": "Enzyme Inhibition Assay", "details": "pH 6.5; 25 °C", "protocol": "as §1"}}}
{"compound": "CC(=O)CC=C(C[C@@H]1CCNC1=O)NC(=O)[C@H](CC(C)C)NC(=O)[C@H](CNC(=O)C(C)(C)C)NC(=O)OCc1ccccc1", "note": "[TG-0204998]", "values": [{"measurement": "Ki", "setting": "Genome polyprotein", "value": 800, "unit": "nM"}]}
{"compound": "CC(C)C[C@H](NC(=O)[C@@H](NC(=O)OCc1ccccc1)C(C)OC(C)(C)C)C(=O)NC(=CCC(=O)C1CC1)C[C@@H]1CCNC1=O", "note": "(stereo partly specified) [TG-0205486]", "values": [{"measurement": "Ki", "setting": "Genome polyprotein", "value": 400, "unit": "nM"}]}
{"compound": "C[C@H](OC(C)(C)C)[C@H](NC(=O)OCc1ccccc1)C(=O)N[C@@H](CC1CCCCC1)C(=O)N[C@H](C=O)C[C@@H]1CCNC1=O", "note": "[benzyl N-[(1S,2S)-2-(tert-butoxy)-1-{[(1S)-2-cyclohexyl-1-{[(2S)-1-oxo-3-[(3S)-2-oxopyrrolidin-3-yl]propan-2-yl]carbamoyl}ethyl]carbamoyl}propyl]carbamate]", "values": [{"measurement": "Ki", "setting": "Genome polyprotein", "value": 2500, "unit": "nM"}, {"measurement": "Ki", "setting": "[1]", "value": 54, "unit": "nM"}]}
{"compound": "CCOC(=O)/C=C/[C@H](C[C@@H]1CCNC1=O)NC(=O)[C@H](CC(C)C)NC(=O)[C@@H](NC(=O)OCc1ccccc1)C(C)OC(C)(C)C", "note": "(stereo partly drawn) [ethyl (2E,4S)-4-[(2S)-2-[(2S,3S)-2-{[(benzyloxy)carbonyl]amino}-3-(tert-butoxy)butanamido]-4-methylpentanamido]-5-[(3S)-2-oxopyrrolidin-3-yl]pent-2-enoate]", "values": [{"measurement": "Ki", "setting": "Genome polyprotein", "value": 1500, "unit": "nM"}, {"measurement": "Ki", "setting": "[1]", "value": 58, "unit": "nM"}]}
